Results published in patent publication US20190241573A1, “ISOQUINOLINE DERIVATIVES AS PERK INHIBITORS” (GlaxoSmithKline Intellectual Property Development Limited, priority 2016, published 2019).

Tested on: prion infected mice
Test: not given
Conditions: cited from earlier work

In the case of `Cn1cc(-c2ccc3c(c2)CCN3C(=O)Cc2cccc(C(F)(F)F)c2)c2c(N)ncnc21` [GSK2606414, 7-methyl-5-(1-{[3-(trifluoromethyl)phenyl]acetyl}-2,3-dihydro-1H-indol-5-yl)-7H-pyrrolo[2,3-d]pyrimidin-4-amine], the “neuroprotective effect and clinical signs of disease” value is given as “provide a neuroprotective effect and prevent clinical signs of disease”.

Molecular target: T1, GST-PERK enzyme (Homo sapiens, UniProt Q9NZJ5)
T1 sequence (Q9NZJ5 30-1116): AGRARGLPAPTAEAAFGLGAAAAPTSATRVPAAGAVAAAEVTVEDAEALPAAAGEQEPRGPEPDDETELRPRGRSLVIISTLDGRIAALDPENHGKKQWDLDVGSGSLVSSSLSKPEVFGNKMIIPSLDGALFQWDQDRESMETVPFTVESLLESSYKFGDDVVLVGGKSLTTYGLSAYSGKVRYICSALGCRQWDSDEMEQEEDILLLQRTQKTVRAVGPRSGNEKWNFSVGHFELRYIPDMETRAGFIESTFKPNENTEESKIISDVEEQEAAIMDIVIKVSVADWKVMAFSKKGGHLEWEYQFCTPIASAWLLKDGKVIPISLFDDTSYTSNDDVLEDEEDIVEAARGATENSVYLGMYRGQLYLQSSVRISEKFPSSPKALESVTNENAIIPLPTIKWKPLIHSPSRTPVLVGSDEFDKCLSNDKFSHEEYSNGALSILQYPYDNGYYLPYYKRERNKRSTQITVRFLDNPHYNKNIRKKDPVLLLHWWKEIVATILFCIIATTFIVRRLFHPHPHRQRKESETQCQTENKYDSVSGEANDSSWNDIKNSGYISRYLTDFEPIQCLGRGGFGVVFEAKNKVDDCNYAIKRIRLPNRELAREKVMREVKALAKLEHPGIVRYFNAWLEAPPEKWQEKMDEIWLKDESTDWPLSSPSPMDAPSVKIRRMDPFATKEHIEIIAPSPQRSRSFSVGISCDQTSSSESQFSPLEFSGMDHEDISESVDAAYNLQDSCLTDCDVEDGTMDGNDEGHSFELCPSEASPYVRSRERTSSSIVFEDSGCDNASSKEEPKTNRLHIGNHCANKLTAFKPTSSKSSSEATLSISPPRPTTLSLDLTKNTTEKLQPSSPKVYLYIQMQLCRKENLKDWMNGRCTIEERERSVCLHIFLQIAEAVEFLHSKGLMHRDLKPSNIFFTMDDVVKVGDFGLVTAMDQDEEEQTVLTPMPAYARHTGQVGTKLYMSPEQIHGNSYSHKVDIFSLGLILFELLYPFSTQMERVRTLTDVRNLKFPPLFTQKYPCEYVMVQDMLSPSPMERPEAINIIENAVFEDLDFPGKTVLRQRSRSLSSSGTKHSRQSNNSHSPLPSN
Test: PERK enzyme assay
Type: biochemical
Conditions: 5 μM ATP; biotin-eIF2α substrate, 60 minutes; read-out: average PERK Enzyme (5 μM ATP) pIC50 (converted)
Protocol: Example 61: PERK Enzyme Assay
Compounds of the invention were assayed for PERK enzyme inhibitory activity with modifications to previously reported conditions (Axten et al. J. Med. Chem., 2012, 55, 7193-7207). Briefly, various concentrations of compounds (maximum 1% DMSO) were dispensed into 384-well plates containing GST-PERK enzyme. ATP and biotin-elF2α were added and after 60 minutes the reaction was quenched. After 2 hrs, a fluorescence plate reader was used to measure inhibition and pIC50s were calculated. The activity of compound 1 was determined at an ATP concentration=5 μM. For compounds 2-20 the PERK activity was determined at ATP concentration=500 μM ATP.

With `Cn1cc(-c2ccc3cc(Cc4ccccc4)ncc3c2)c2c(N)ncnc21` [Example 1, 5-(3-Benzylisoquinolin-7-yl)-7-methyl-7H-pyrrolo[2,3-d]pyrimidin-4-amine] the IC50 was 15.8 nM.

Same assay, conditions: 500 μM ATP; biotin-eIF2α substrate, 60 minutes; read-out: average PERK Enzyme (500 μM ATP) pIC50 (converted)

First: Cc1ccccc1Cc1cc2ccc(-c3cn(C4CC4)c4ncnc(N)c34)c(F)c2cn1 [Example 38, 7-cyclopropyl-5-(8-fluoro-3-(2-methylbenzyl)isoquinolin-7-yl)-7H-pyrrolo[2,3-d]pyrimidin-4-amine]
Second: Nc1ncnc2c1c(-c1ccc3cc(Cc4cccc(Cl)c4F)ncc3c1F)cn2C1CC1 [Example 51, 5-(3-(3-chloro-2-fluorobenzyl)-8-fluoroisoquinolin-7-yl)-7-cyclopropyl-7H-pyrrolo[2,3-d]pyrimidin-4-amine]
The IC50 of the first is 4-fold higher: 12.6 nM for the first, 3.16 nM for the second.

First: Nc1ncnc2c1c(-c1ccc3cc(Cc4cc(C(F)(F)F)ccc4F)ncc3c1F)cn2C1CC1 [Example 41, 7-cyclopropyl-5-(8-fluoro-3-(2-fluoro-5-(trifluoromethyl)benzyl)isoquinolin-7-yl)-7H-pyrrolo[2,3-d]pyrimidin-4-amine]
Second: Nc1ncnc2c1c(-c1ccc3cc(Cc4cncc(F)c4)ncc3c1F)cn2C1CC1 [Example 53, 7-cyclopropyl-5-(8-fluoro-3-((5-fluoropyridin-3-yl)methyl)isoquinolin-7-yl)-7H-pyrrolo[2,3-d]pyrimidin-4-amine]
The IC50 of the first is 6.3-fold lower: 100 nM for the first, 631 nM for the second.

`Cn1cc(-c2ccc3cc(Cc4cccc(C(F)(F)F)c4)ncc3c2F)c2c(N)ncnc21` [Example 19, 5-(8-fluoro-3-(3-(trifluoromethyl)benzyl)isoquinolin-7-yl)-7-methyl-7H-pyrrolo[2,3-d]pyrimidin-4-amine] and `Cn1cc(-c2ccc3cc(Cc4cc(F)cc(C(F)(F)F)c4)ncc3c2F)c2c(N)ncnc21` [Example 18, 5-(8-fluoro-3-(3-fluoro-5-(trifluoromethyl)benzyl)isoquinolin-7-yl)-7-methyl-7H-pyrrolo[2,3-d]pyrimidin-4-amine] cannot be ordered by IC50: > 3980 nM for the first, > 3980 nM for the second.

Going from `Nc1ncnn2ccc(-c3ccc4cc(Cc5cc(F)cc(F)c5)ncc4c3F)c12` [Example 58, 5-(3-(3,5-difluorobenzyl)-8-fluoroisoquinolin-7-yl)pyrrolo[2,1-f][1,2,4]triazin-4-amine] to `Cn1cc(-c2ccc3cc(Cc4cc(F)cc(F)c4)ncc3c2F)c2c(N)ncnc21` [Example 4, 5-(3-(3,5-Difluorobenzyl)-8-fluoroisoquinolin-7-yl)-7-methyl-7H-pyrrolo[2,3-d]pyrimidin-4-amine], the IC50 falls from > 3980 nM to 251 nM.

Compared with `Cc1nc(N)c2c(-c3ccc4cc(Cc5cc(F)cc(F)c5)ncc4c3F)cn(C)c2n1` [Example 25, 5-(3-(3,5-difluorobenzyl)-8-fluoroisoquinolin-7-yl)-2,7-dimethyl-7H-pyrrolo[2,3-d]pyrimidin-4-amine], `Cc1nc(N)c2c(-c3ccc4cc(Cc5cc(F)cc(F)c5)ncc4c3F)cn(C3CC3)c2n1` [Example 28, 7-cyclopropyl-5-(3-(3,5-difluorobenzyl)-8-fluoroisoquinolin-7-yl)-2-methyl-7H-pyrrolo[2,3-d]pyrimidin-4-amine] is lower in IC50: > 3980 nM for the first, 2510 nM for the second.

Compared with `Nc1ncnc2c1c(-c1ccc3cc(Cc4cc(F)cc(F)c4)ncc3c1F)nn2C1CC1` [Example 29, 1-cyclopropyl-3-(3-(3,5-difluorobenzyl)-8-fluoroisoquinolin-7-yl)-1H-pyrazolo[3,4-d]pyrimidin-4-amine], `CCn1cc(-c2ccc3cc(Cc4cc(F)cc(F)c4)ncc3c2F)c2c(N)ncnc21` [Example 6, 5-(3-(3,5-difluorobenzyl)-8-fluoroisoquinolin-7-yl)-7-ethyl-7H-pyrrolo[2,3-d]pyrimidin-4-amine] is lower in IC50: > 3980 nM for the first, 158 nM for the second.

Compared with `Cn1cc(-c2ccc3cc(Cc4cc(F)ccc4F)ncc3c2F)c2c(N)ncnc21` [Example 17, 5-(3-(2,5-difluorobenzyl)-8-fluoroisoquinolin-7-yl)-7-methyl-7H-pyrrolo[2,3-d]pyrimidin-4-amine], `CN(C)CCn1cc(-c2ccc3cc(Cc4cc(F)cc(F)c4)ncc3c2F)c2c(N)ncnc21` [Example 47, 5-(3-(3,5-difluorobenzyl)-8-fluoroisoquinolin-7-yl)-7-(2-(dimethylamino)ethyl)-7H-pyrrolo[2,3-d]pyrimidin-4-amine] is 1.6-fold higher in IC50: 1000 nM for the first, 1580 nM for the second.

`Cc1cc(C)cc(C(=O)c2cc3ccc(-c4cn(C)c5ncnc(N)c45)cc3cn2)c1` [Example 15, (7-(4-amino-7-methyl-7H-pyrrolo[2,3-d]pyrimidin-5-yl)isoquinolin-3-yl)(3,5-dimethylphenyl)methanone] and `Nc1ncnc2c1c(-c1ccc3cc(Cc4cc(F)cc(F)c4)ncc3c1F)cn2CC(F)(F)F` [Example 23, 5-(3-(3,5-difluorobenzyl)-8-fluoroisoquinolin-7-yl)-7-(2,2,2-trifluoroethyl)-7H-pyrrolo[2,3-d]pyrimidin-4-amine] cannot be ordered by IC50: > 3980 nM for the first, > 3980 nM for the second.
